# In patent US20100022584A1, “Modulation of Glutamine Synthetase Activity” (priority 2006, published 2010):
# Numbering of substitutions follows the chain as printed.
# Columns and labels:
# Test in all cases: HPLC forward-reaction glutamine synthetase assay with serine protease inhibitors
# Assay type in all cases: biochemical, E. coli
# [1] = biological target: T1, glutamine synthetase mutant S52A Y397V (Escherichia coli, UniProt P0A9C5, S53A/Y398V); details: 1 mM inhibitor; for inhibition of the enzyme (in words): HPLC assays; for % Conversion: glutamine-based divided by ADP-based specific activity
# T1 construct: made in house; host or cells: E. coli YMC11 (glutamine synthetase auxotroph), pBluescript II SK+
# T1 sequence (P0A9C5 2-469 S53A/Y398V limits assumed): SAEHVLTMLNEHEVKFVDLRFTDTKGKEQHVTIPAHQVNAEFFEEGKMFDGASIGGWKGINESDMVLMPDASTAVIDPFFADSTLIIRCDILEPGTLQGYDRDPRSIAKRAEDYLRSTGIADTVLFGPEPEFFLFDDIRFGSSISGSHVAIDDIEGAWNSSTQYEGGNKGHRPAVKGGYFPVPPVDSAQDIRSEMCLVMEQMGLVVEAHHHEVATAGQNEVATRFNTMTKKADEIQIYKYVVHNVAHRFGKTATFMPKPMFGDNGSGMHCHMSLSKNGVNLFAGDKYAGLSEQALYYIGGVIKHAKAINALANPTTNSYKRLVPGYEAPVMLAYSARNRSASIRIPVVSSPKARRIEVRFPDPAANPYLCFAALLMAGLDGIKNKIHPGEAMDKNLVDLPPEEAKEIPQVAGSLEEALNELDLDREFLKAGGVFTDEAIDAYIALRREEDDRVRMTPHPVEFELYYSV
# Procedure: (§1) This assay was set up to measure glutamine synthetase activity according to the forward reaction, and measures the amount of glutamine formed from […] of L-glutamate in the presence of MnCO3-ATP (the basis of one reaction) and MgATP (the basis of a second reaction). In addition, the amount of ADP formed is also measured in a separate assay, using the same reagents.
# (§2) All enzyme preparations were adjusted to the same concentration of protein, and added to the assay mixture in a volume of 50 μl. The addition of the enzyme started the reaction, which was then allowed to proceed for 1 hour. The reaction was stopped by the addition of 6 μl of a 50% solution of trichloroacetic acid. Each assay was then aliquoted into 4 HPLC vials (150 μl per vial), two of which were assayed for glutamate and glutamine using a Phenomenex Luna 5 μC18 Column on an Agilent 100 HPLC instrument. The ATP/ADP assays were run on a Chromolith Performance RP-18c column also using an Agilent 100 HPLC instrument.
# (§3) As it is believed that two putative catalytic triads, similar to those in the serine proteases, are involved in the reaction mechanism of glutamine synthetase, certain of the mutants were also assayed by HPLC in the presence of the serine protease inhibitors, AEBSF and PMSF, in order to assess the effect that these inhibitors had on the enzyme. The enzymes assessed were the adenylylated WT enzyme, the deadenylylated WT enzyme, and the mutant enzymes S52A, S52A Y397V, S53A, S53A Y397V, S52A S53A and S52A S53A Y397V. The enzymes were pre-incubated for 60 minutes in the presence of 1 mM PMSF or 1 mM AEBSF. A control reaction was set up for each enzyme, which contained no inhibitor. Each enzyme was then added to assays set up as described above. The assay was allowed to proceed for 60 minutes, then stopped by the addition of […] of 50% TCA, after which they were analysed by HPLC. All assays were run in triplicate.
# (§4) In addition to the γ-glutamyl transferase assays, assays were also developed to measure the rate of conversion of ATP and glutamate to ADP and glutamine by HPLC. These were set up as single assays but analysed separately for glutamate and glutamine and ATP and ADP. The conversion rates for glutamate to glutamine, in both the presence of Mn^2+ and Mg^2+ by glutamine synthetase, is referred to as the […] specific activity and is presented in μmoles/min/mg protein. The conversion rates for ATP to ADP, in both the presence of Mn^2+ and Mg^2+ by glutamine synthetase, is referred to as the ADP-based specific activity and is presented in μmoles/min/mg protein. The percentage of conversion was also calculated by dividing the glutamine-based specific activity by the ADP-based specific activity, and this value is interpreted as the ability of the enzyme to complete both steps of the reaction, i.e., glutamate to glutamine and ATP to ADP, at an equivalent level of efficiency.
# [2] = biological target: T2, adenylylated WT enzyme, WT (AD) glutamine synthetase (Escherichia coli, UniProt P0A9C5); details: 1 mM inhibitor; for % Reduction in ADP-based Specific Activity / % Reduction in Glutamine-based Specific Activity / % Conversion: WT (AD); for % Reduction in ADP-based Specific Activity / % Reduction in Glutamine-based Specific Activity: 60 min pre-incubation, vs no-inhibitor control, positive = activity increased; for % Conversion: glutamine-based divided by ADP-based specific activity; for inhibition of the enzyme (in words): adenylylated WT enzyme, HPLC assays
# T2 construct: made in house; host or cells: E. coli carrying pBSK-ECgln (pBluescript II SK+), continuous culture; YMC11 is the expression strain named for this plasmid
# T2 sequence (P0A9C5 2-469 limits assumed): T1 sequence (P0A9C5 2-469 S53A/Y398V limits assumed) with A52S, V397Y
# Procedure: as §1, §2, §3, §4
# [3] = biological target: T3, glutamine synthetase mutant Y397V (Escherichia coli, UniProt P0A9C5, Y398V); details: 1 mM inhibitor; for inhibition of the enzyme (in words): HPLC assays; for % Conversion: glutamine-based divided by ADP-based specific activity
# T3 construct: made in house; host or cells: E. coli YMC11 (glutamine synthetase auxotroph), pBluescript II SK+
# T3 sequence (P0A9C5 2-469 Y398V limits assumed): T1 sequence (P0A9C5 2-469 S53A/Y398V limits assumed) with A52S
Structure (SMILES),inhibition of the enzyme (in words) [1],% Conversion ([1]; Mg assay),% Conversion ([1]; Mn assay),% Reduction in ADP-based Specific Activity ([2]; Mg assay),% Reduction in Glutamine-based Specific Activity ([2]; Mg assay),% Conversion ([2]; Mg assay),% Reduction in ADP-based Specific Activity ([2]; Mn assay),% Reduction in Glutamine-based Specific Activity ([2]; Mn assay),% Conversion ([2]; Mn assay),inhibition of the enzyme (in words) [2],inhibition of the enzyme (in words) [3],% Conversion ([3]; Mg assay),% Conversion ([3]; Mn assay)
O=S(=O)(F)Cc1ccccc1 [PMSF],found to inhibit,49%,67%,+48.13%,−46.33%,42%,−15.63%,−49.20%,61%,found to inhibit,found to inhibit,78%,61%
NCCc1ccc(S(=O)(=O)F)cc1 [AEBSF],appeared to cause inhibition,,85%,−34.60%,−24.59%,134%,−26.76%,−14.86%,118%,appeared to cause inhibition,appeared to cause inhibition,107%,108%
